Laboratory results as given in patent US11071731B2, “Allosteric modulators of the mu opioid receptor” (Chiromics, LLC, priority 2017, dated 2021).

Assays:
mu opioid receptor (MOR) [1] = target: T1, mu opioid receptor (MOR) (Homo sapiens, UniProt P35372); test: PathHunter β-arrestin recruitment assay, PAM mode with EC20 endomorphin-1; type: cell-based; details: for β-arr Max. Resp.: maximal response for β-arrestin recruitment; for EC50: β-arrestin recruitment, read-out: β-arr. EC50
Method in brief: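 Enzyme fragment complementation read-out: β-gal ED fragment fused to receptor, EA fused to β-arrestin, recruitment restoring β-gal activity detected by chemiluminescence. EC50 and percent maximal response derived for each compound.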

mu opioid receptor (MOR) [2] = target: T1, mu opioid receptor (MOR); test: Hit Hunter cAMP signaling assay (adenylyl cyclase inhibition), PAM mode with EC20 endomorphin-1; type: cell-based; details: for cAMP Max. Resp.: maximal response for adenylyl cyclase inhibition
[3] = cAMP EC50, adenylyl cyclase inhibition
[4] = adenylyl cyclase inhibition, read-out: cAMP EC50

T1 sequence (P35372 whole entry, the tested form may be a part): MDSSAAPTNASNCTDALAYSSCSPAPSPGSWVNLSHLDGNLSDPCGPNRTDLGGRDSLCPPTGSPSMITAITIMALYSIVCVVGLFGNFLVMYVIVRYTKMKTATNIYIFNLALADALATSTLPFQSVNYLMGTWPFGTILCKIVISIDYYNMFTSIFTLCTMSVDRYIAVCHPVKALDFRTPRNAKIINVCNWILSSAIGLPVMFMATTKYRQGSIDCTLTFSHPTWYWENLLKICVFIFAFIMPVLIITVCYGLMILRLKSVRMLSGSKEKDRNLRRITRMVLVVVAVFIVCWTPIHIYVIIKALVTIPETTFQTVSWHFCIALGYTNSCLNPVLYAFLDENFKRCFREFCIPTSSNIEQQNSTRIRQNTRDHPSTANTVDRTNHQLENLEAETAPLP

Row | Structure (SMILES) | β-arr Max. Resp. (mu opioid receptor (MOR) [1]) | EC50 (mu opioid receptor (MOR) [1]) | EC50 (mu opioid receptor (MOR) [2]; [3]) | cAMP Max. Resp. (mu opioid receptor (MOR) [2]) | EC50 (mu opioid receptor (MOR) [2]; [4]) | EC50 (mu opioid receptor (MOR) [2])
1 | COc1ccc(C2CCCCN2c2nc(Cl)ncc2F)cc1C(F)(F)F (centres unmarked) [compound 289] | F (F represents a maximal response of > 60%) | 0.7 to 2.1 µM | > 2.1 µM | D (D represents a maximal response of < 40%) | – | –
2 | Fc1cc(C2CCCCN2c2nc(Cl)ncc2F)ccc1Br (centres unmarked) [compound 290] | F (F represents a maximal response of > 60%) | < 0.7 µM | < 0.7 µM | D (D represents a maximal response of < 40%) | – | –
3 | Fc1cnc(Cl)nc1N1CCCCC1c1ccc2cnnn2c1 (centres unmarked) [compound 291] | D (D represents a maximal response of < 40%) | > 2.1 µM | > 2.1 µM | F (F represents a maximal response of > 60%) | – | –
4 | OC1CCN(c2nc(Cl)ncc2F)C(c2ccc(F)c(Cl)c2)C1 (centres unmarked) [compound 293] | F (F represents a maximal response of > 60%) | > 2.1 µM | 0.7 to 2.1 µM | F (F represents a maximal response of > 60%) | – | –
5 | COc1ccc(C2CCCCN2c2nc(Cl)ncc2F)cc1OC (centres unmarked) [compound 294] | D (D represents a maximal response of < 40%) | > 2.1 µM | > 2.1 µM | F (F represents a maximal response of > 60%) | – | –
6 | COc1ncc(N2CCCCC2c2cccc(C(F)(F)F)c2)c(F)n1 (centres unmarked) [compound 295] | D (D represents a maximal response of < 40%) | > 2.1 µM | – | D (D represents a maximal response of < 40%) | > 2.1 µM | –
7 | COc1ncc(N2CCCCC2c2cccc(F)n2)c(F)n1 (centres unmarked) [compound 296] | D (D represents a maximal response of < 40%) | > 2.1 µM | – | D (D represents a maximal response of < 40%) | > 2.1 µM | –
8 | Fc1ccc(C2CCCCN2c2nc(Cl)ncc2F)cn1 (centres unmarked) [compound 297] | E (E represents a maximal response of 40-60%) | – | – | E (E represents a maximal response of 40-60%) | – | > 2.1 µM
9 | Fc1cnc(Cl)nc1N1CCCCC1c1cccc(C(F)F)c1 (centres unmarked) [compound 298] | F (F represents a maximal response of > 60%) | > 2.1 µM | < 0.7 µM | F (F represents a maximal response of > 60%) | – | –
10 | Fc1ccc(C2CCCCN2c2nc(Cl)ncc2F)cc1C(F)F (centres unmarked) [compound 299] | F (F represents a maximal response of > 60%) | 0.7 to 2.1 µM | < 0.7 µM | F (F represents a maximal response of > 60%) | – | –
11 | Cn1cnc2cc(C(F)(F)F)cc(C3CCCCN3c3nc(Cl)ncc3F)c21 (centres unmarked) [compound 300] | E (E represents a maximal response of 40-60%) | > 2.1 µM | > 2.1 µM | F (F represents a maximal response of > 60%) | – | –
12 | Fc1cc(C2CCC(OCCN3CCOCC3)CN2c2nc(Cl)ncc2F)cc(C(F)(F)F)c1 (centres unmarked) [compound 304] | D (D represents a maximal response of < 40%) | > 2.1 µM | – | D (D represents a maximal response of < 40%) | > 2.1 µM | –
13 | OC1CCC(c2cc(F)cc(C(F)(F)F)c2)N(c2nc(Cl)ncc2F)C1 (centres unmarked) [compound 311] | F (F represents a maximal response of > 60%) | > 2.1 µM | 0.7 to 2.1 µM | F (F represents a maximal response of > 60%) | – | –
14 | Fc1cc(C2CCC(F)CN2c2nc(Cl)ncc2F)cc(C(F)(F)F)c1 (centres unmarked) [compound 312] | F (F represents a maximal response of > 60%) | < 0.7 µM | – | F (F represents a maximal response of > 60%) | < 0.7 µM | –
15 | Fc1cc(C2CCC(F)CN2c2nc(Cl)ncc2F)cc(C(F)(F)F)c1 (centres unmarked) [compound 313] | F (F represents a maximal response of > 60%) | > 2.1 µM | – | E (E represents a maximal response of 40-60%) | 0.7 to 2.1 µM | –
